Drawing on US11384055B2 (BIOMARIN PHARMACEUTICAL INC., priority 2017, dated 2022), this text covers IC50 for 33 compounds.

The target of this assay is T1, Human GO (Homo sapiens, UniProt Q9UJM8).
T1 construct: purchased Novus Biologicals NBP1-72412
T1 sequence (Q9UJM8 1-370): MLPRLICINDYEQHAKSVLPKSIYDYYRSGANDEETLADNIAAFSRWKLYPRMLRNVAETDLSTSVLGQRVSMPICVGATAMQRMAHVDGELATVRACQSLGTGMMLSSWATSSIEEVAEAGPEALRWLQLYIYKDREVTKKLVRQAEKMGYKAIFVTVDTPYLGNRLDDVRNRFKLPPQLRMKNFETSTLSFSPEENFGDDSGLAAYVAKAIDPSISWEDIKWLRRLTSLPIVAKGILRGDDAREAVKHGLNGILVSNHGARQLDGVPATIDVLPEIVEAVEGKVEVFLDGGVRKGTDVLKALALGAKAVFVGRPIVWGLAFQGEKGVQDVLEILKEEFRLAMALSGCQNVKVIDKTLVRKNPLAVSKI
Description: GO enzymatic assay (coupled fluorescence/HRP assay, glycolate substrate). Type of assay: biochemical. The settings on record: Table 2; read-out: Range (range of IC50 values calculated from the enzymatic assays). In outline: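 Coupled HRP/fluorescence read-out of glycolate oxidation by human GO in 50 mM potassium phosphate buffer (pH 7). Inhibitors added across a concentration range.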
What is called IC50 is the concentration that gives 50% inhibition. Regarding `O=C(O)c1[nH]nnc1COc1ccc(-c2cc(Cl)cc(Cl)c2)cc1` [Compound 299, 4-(((3′,5′-dichloro-[1,1′-biphenyl]-4-yl)oxy)methyl)-1H-1,2,3-triazole-5-carboxylic acid], the IC50 is less than 0.1 µM.

As for `O=C(O)c1[nH]nnc1COc1ccc(-c2ccc(OC(F)(F)F)c(Cl)c2)cc1` [Compound 300, 4-(((3′-chloro-4′-(trifluoromethoxy)-[1,1′-biphenyl]-4-yl)oxy)methyl)-1H-1,2,3-triazole-5-carboxylic acid], the IC50 is less than 0.1 µM.

`O=C(O)c1[nH]nnc1Oc1ccc(N2CCC(F)(F)CC2)cc1` [Compound 301, 4-(4-(4,4-difluoropiperidin-1-yl)phenoxy)-1H-1,2,3-triazole-5-carboxylic acid 2,2,2-trifluoroacetate]: the IC50 is 0.1 to 1 µM.

For `O=C(OCOC(=O)C1CCCCC1)c1[nH]nnc1O[C@H]1CC[C@H](c2ccc(OC(F)(F)F)cc2)CC1` [Compound 303, ((cyclohexanecarbonyl)oxy)methyl 4-(((trans)-4-(4-(trifluoromethoxy)phenyl)cyclohexyl)oxy)-1H-1,2,3-triazole-5-carboxylate], the IC50 was more than 10 µM.

Take `O=C(O)c1[nH]nnc1O[C@H]1CC[C@@H](c2cc(Cl)cc(Cl)c2)CC1` [Compound 304, 4-(((1s,4s)-4-(3,5-dichlorophenyl)cyclohexyl)oxy)-1H-1,2,3-triazole-5-carboxylic acid]: the IC50 was less than 0.1 µM.

As for `O=C(OCOC(=O)c1[nH]nnc1O[C@H]1CC[C@H](c2ccc(OC(F)(F)F)cc2)CC1)c1ccccc1` [Compound 305, (benzoyloxy)methyl 4-(((trans)-4-(4-(trifluoromethoxy)phenyl)cyclohexyl)oxy)-1H-1,2,3-triazole-5-carboxylate], the half-maximal inhibitory concentration (IC50) is more than 10 µM.

On to `O=C(O)c1[nH]nnc1Oc1ccc(C2CCC(N3CCCCC3)CC2)cc1` (stereo not drawn) [Compound 306, 4-(4-(4-(piperidin-1-yl)cyclohexyl)phenoxy)-1H-1,2,3-triazole-5-carboxylic acid 2,2,2-trifluoroacetate], for which the IC50 is 0.1 to 1 µM.

Consider `CC(C)C(=O)OCOC(=O)c1[nH]nnc1O[C@H]1CC[C@H](c2ccc(OC(F)(F)F)cc2)CC1` [Compound 307, (isobutyryloxy)methyl 4-(((trans)-4-(4-(trifluoromethoxy)phenyl)cyclohexyl)oxy)-1H-1,2,3-triazole-5-carboxylate], for which the IC50 is 1 to 10 µM.

As to `O=C(O)c1[nH]nnc1O[C@H]1CC[C@@H](c2ccc(Cl)c(Cl)c2)CC1` [Compound 308-1, 4-(((cis)-4-(3,4-dichlorophenyl)cyclohexyl)oxy)-1H-1,2,3-triazole-5-carboxylic acid], the IC50 is less than 0.1 µM.

Consider `O=C(O)c1[nH]nnc1O[C@H]1CC[C@H](c2ccc(Cl)c(Cl)c2)CC1` [Compound 308-2, 4-(((trans)-4-(3,4-dichlorophenyl)cyclohexyl)oxy)-1H-1,2,3-triazole-5-carboxylic acid], for which the IC50 was less than 0.1 µM.

For `O=C(O)c1[nH]nnc1Oc1ccc(Cl)c(OCC2CCCCC2)c1` [Compound 309, 4-(4-chloro-3-(cyclohexylmethoxy)phenoxy)-1H-1,2,3-triazole-5-carboxylic acid], the IC50 was less than 0.1 µM.

On to `O=C(O)c1[nH]nnc1O[C@H]1CC[C@@H](c2ccc(C(F)(F)F)cc2)CC1` [Compound 310, 4-(((cis)-4-(4-(trifluoromethyl)phenyl)cyclohexyl)oxy)-1H-1,2,3-triazole-5-carboxylic acid], for which the IC50 was less than 0.1 µM.

On to `O=C(O)c1[nH]nnc1SC1CCC2(CCCC2)CC1` [Compound 311, 4-(spiro[4.5]decan-8-ylthio)-1H-1,2,3-triazole-5-carboxylic acid 2,2,2-trifluoroacetate], for which the IC50 was less than 0.1 µM.

As to `O=C(O)c1[nH]nnc1CSc1ccc(-c2ccc(OC(F)(F)F)cc2)cc1` [Compound 312, 4-(((4′-(trifluoromethoxy)-[1,1′-biphenyl]-4-yl)thio)methyl)-1H-1,2,3-triazole-5-carboxylic acid 2,2,2-trifluoroacetate], the IC50 was less than 0.1 µM.

For the compound `CCC(=O)OCOC(=O)c1[nH]nnc1Sc1ccc(-c2ccc(N3CCCCC3)cc2)cc1` [Compound 313, (propionyloxy)methyl 4-((4′-(piperidin-1-yl)-[1,1′-biphenyl]-4-yl)thio)-1H-1,2,3-triazole-5-carboxylate 2,2,2-trifluoroacetate], the IC50 is 1 to 10 µM.

In the case of `O=C(O)c1[nH]nnc1SC1CCC(c2ccc(OC(F)(F)F)cc2)C1` (stereo not drawn) [Compound 314, 4-((3-(4-(trifluoromethoxy)phenyl)cyclopentyl)thio)-1H-1,2,3-triazole-5-carboxylic acid], the half-maximal inhibitory concentration (IC50) was less than 0.1 µM.

As for `O=C(O)c1[nH]nnc1SC1CCC2(CCCCC2)CC1` [Compound 315, 4-(spiro[5.5]undecan-3-ylthio)-1H-1,2,3-triazole-5-carboxylic acid 2,2,2-trifluoroacetate], the IC50 is less than 0.1 µM.

As for `O=C(O)c1[nH]nnc1SCc1ccc(N2CCCCC2)c2ccccc12` [Compound 316, 4-(((4-(piperidin-1-yl)naphthalen-1-yl)methyl)thio)-1H-1,2,3-triazole-5-carboxylic acid 2,2,2-trifluoroacetate], the IC50 was less than 0.1 µM.

Take `O=C(OCOC(=O)C1CCCCC1)c1[nH]nnc1Sc1ccc(-c2ccc(N3CCCCC3)cc2)cc1` [Compound 317, ((cyclohexanecarbonyl)oxy)methyl 4-((4′-(piperidin-1-yl)-[1,1′-biphenyl]-4-yl)thio)-1H-1,2,3-triazole-5-carboxylate 2,2,2-trifluoroacetate]: the IC50 is more than 10 µM.

For `O=C(O)c1[nH]nnc1Sc1ccc(Cl)c(OC(F)(F)F)c1` [Compound 318, 4-((4-chloro-3-(trifluoromethoxy)phenyl)thio)-1H-1,2,3-triazole-5-carboxylic acid], the IC50 was less than 0.1 µM.

Regarding `O=C(O)c1[nH]nnc1Sc1ccc(-c2ccc(N3CCC(F)(F)CC3)cc2)cc1` [Compound 319, 4-((4′-(4,4-difluoropiperidin-1-yl)-[1,1′-biphenyl]-4-yl)thio)-1H-1,2,3-triazole-5-carboxylic acid 2,2,2-trifluoroacetate], the IC50 was less than 0.1 µM.

For the compound `O=C(O)c1[nH]nnc1SC1Cc2ccc(OC(F)(F)F)cc2C1` (stereo not drawn) [Compound 320, 4-((5-(trifluoromethoxy)-2,3-dihydro-1H-inden-2-yl)thio)-1H-1,2,3-triazole-5-carboxylic acid], the IC50 is less than 0.1 µM.

As to `O=C(O)c1[nH]nnc1Sc1ccc(-c2ccc(OC(F)(F)F)cn2)cc1` [Compound 321, 4-((4-(5-(trifluoromethoxy)pyridin-2-yl)phenyl)thio)-1H-1,2,3-triazole-5-carboxylic acid 2,2,2-trifluoroacetate], the IC50 is less than 0.1 µM.

Regarding `O=C(O)c1[nH]nnc1CSc1ccc(-c2ccc(Cl)c(Cl)c2)cc1` [Compound 322, 4-(((3′,4′-dichloro-[1,1′-biphenyl]-4-yl)thio)methyl)-1H-1,2,3-triazole-5-carboxylic acid 2,2,2-trifluoroacetate], the IC50 was less than 0.1 µM.

As for `O=C(O)c1[nH]nnc1SC1CCN(c2ccc(Cl)c(Cl)c2)CC1` [Compound 323, 4-((1-(3,4-dichlorophenyl)piperidin-4-yl)thio)-1H-1,2,3-triazole-5-carboxylic acid 2,2,2-trifluoroacetate], the IC50 was less than 0.1 µM.

Take `O=C(O)c1[nH]nnc1SC1CCN(c2ccc(C(F)(F)F)cc2)CC1` [Compound 324]: the 50% inhibitory concentration (IC50) was less than 0.1 µM.

For the compound `O=C(O)c1[nH]nnc1SC1CCN(c2cc(Cl)cc(Cl)c2)CC1` [Compound 325, 4-((1-(3,5-dichlorophenyl)piperidin-4-yl)thio)-1H-1,2,3-triazole-5-carboxylic acid 2,2,2-trifluoroacetate], the IC50 is less than 0.1 µM.

In the case of `O=C(O)c1[nH]nnc1SC1CCC(c2cccc(OC(F)(F)F)c2)CC1` (stereo not drawn) [Compound 326, 4-((4-(3-(trifluoromethoxy)phenyl)cyclohexyl)thio)-1H-1,2,3-triazole-5-carboxylic acid], the IC50 was less than 0.1 µM.

As for `O=C(O)c1[nH]nnc1SC1CCC(c2cccc(C(F)(F)F)c2)CC1` (stereo not drawn) [Compound 327, 4-((4-(3-(trifluoromethyl)phenyl)cyclohexyl)thio)-1H-1,2,3-triazole-5-carboxylic acid], the IC50 was less than 0.1 µM.

In the case of `O=C(O)c1[nH]nnc1CSc1ccc(-c2cc(Cl)cc(Cl)c2)cc1` [Compound 328, 4-(((3′,5′-dichloro-[1,1′-biphenyl]-4-yl)thio)methyl)-1H-1,2,3-triazole-5-carboxylic acid], the IC50 is less than 0.1 µM.

`O=C(O)c1[nH]nnc1CSc1ccc(-c2ccc(OC(F)(F)F)c(Cl)c2)cc1` [Compound 329, 4-(((3′-chloro-4′-(trifluoromethoxy)-[1,1′-biphenyl]-4-yl)thio)methyl)-1H-1,2,3-triazole-5-carboxylic acid]: the IC50 was less than 0.1 µM.

For the compound `O=C(O)c1[nH]nnc1SC1CCN(c2cc(Cl)ccc2Cl)CC1` [Compound 330, 4-((1-(2,5-dichlorophenyl)piperidin-4-yl)thio)-1H-1,2,3-triazole-5-carboxylic acid], the IC50 is less than 0.1 µM.

As for `O=C(O)c1[nH]nnc1S[C@H]1CC[C@@H](c2cc(Cl)cc(Cl)c2)CC1` [Compound 331, 4-(((cis)-4-(3,5-dichlorophenyl)cyclohexyl)thio)-1H-1,2,3-triazole-5-carboxylic acid], the IC50 is less than 0.1 µM.
